Data from patent US11154515B2, “Pharmaceutical compositions comprising cannabidiol and beta-caryophyllene and methods for their use” (priority 2017, dated 2021).
Where “and” joins values, the source holds several entries; their conditions need not be identical. Identical values can stand only once.

Assays:
IL-1α gene expression = IL-1α gene expression (RT-qPCR) in LPS-stimulated RAW 264.7 macrophages; assay type: cell-based, murine; settings: for % decrease in IL1α expression: Table 3A experiment; for % Inhibition Alone, IL-1α gene expression: Table 3B/6 experiment
Method: (§1) RAW 264.7 cells were cultured in Dulbecco's Modified Eagle's Medium (high glucose DMEM, Sigma-Aldrich) supplemented with 10% fetal bovine serum (FBS), 1% L-glutamine, 1% Sodium-pyruvate, 1% Penicillin-Streptomycin (culture medium). The cells were maintained in T75 flasks at 37° C. in humidified air containing 5% CO2 in an incubator and passaged every second-third day.
(§2) For drug treatment and LPS stimulation, 200,000 cells/well were seeded in 1.5 mL culture medium in a 6-well plate and incubated to allow attachment to the cell culture plate. After attachment, cells were incubated with various concentrations of CBD (0.1 μM, 0.3 μM, 1 μM, 3 μM, 5 μM, 10 μM, and 30 μM) or BCP (0.001 μM, 0.01 μM, 0.013 μM, 0.1 μM, 0.3 μM, 1 μM, 3 μM, 5 μM, 10 μM, and 100 μM), or vehicle (control) for 2 hrs. After the 2 h incubation, 0.1 μg/mL LPS was added to each well to induce inflammation and cells were incubated with LPS for 24 hrs.
(§3) After the 24 h incubation with LPS, the cells were harvested and gene expression of the pro-inflammatory cytokines interleukin (IL)-1α, IL-1β were measured by quantitative real-time polymerase chain reaction (RT-qPCR) on a Roche Light Cycler 480 QPCR System (Roche Applied Sciences) using the 5′ nuclease assay. Total RNA was isolated using TRIzol (LifeTechnologies), DNase treatment was performed according to the manufacturer's protocol, and then 1 μg of total RNA was reverse-transcribed into cDNA using High Capacity cDNA Kit from Life Technologies Corporation. PCR amplification was performed using the TaqMan primers and probes (assay IDs: Mm00439620_m1 for murine Il1a; Mm00434228_m1 for murine Il1b, Mm00446190_m1 for murine 116, Mm00441263_m1 for murine Cxcl15/Il8). Expression of the housekeeping gene, Gapdh, was used (assay ID: […]) as an internal control. The amount of the transcripts was normalized to those of the housekeeping gene using the ΔCT method. Results are expressed as % decrease in the expression levels of IL1α and IL1β in drug-treated, LPS-stimulated groups compared to the expression of each cytokine gene in the vehicle-treated, LPS-stimulated group (regarded as 100%). All experiments were repeated 2-3 times.
(§4) For statistical analysis, data were analyzed and graphs were plotted using Origin Pro Plus 6.0 software (Microcal, Northampton, Mass., USA) and Student's two-tailed two samples t-test. p<0.05 values were regarded as significant differences.

IL-1β gene expression = IL-1β gene expression (RT-qPCR) in LPS-stimulated RAW 264.7 macrophages; assay type: cell-based, murine
Method: as §1, §2, §3, §4

[1] = system: male NMRI mice, carrageenan-induced paw edema; assay: Carrageenan-induced paw edema, plethysmometry; assay type: in vivo, mouse
Method: (§5) CBD and BCP solutions (≥80%, FCC, FG) were dissolved in a solution containing 10% Tween 80 and 90% saline (vehicle) and were freshly prepared immediately before use. Mice were treated with drug solutions or vehicle control by intraperitoneal (i.p.) injection at a volume of 0.1 mL/10 g body weight. Acute paw injury was induced by intraplantar injection of 20 μL 3% carrageenan (dissolved in 0.9% NaCl, Sigma Aldrich, St. Louis, Mo., USA) into the right hind paw.
(§6) Experiments were performed on 7-16-week-old male NMRI mice (30-50 g) provided with standard chow and water ad libitum. Mice were divided into groups and treated with a single dose of vehicle control (VEH), CBD, BCP, or CBD+BCP delivered i.p. 30 minutes after drug administration, measurements were taken to determine baseline values for mechanonociceptive thresholds and paw volumes. 35 minutes after drug administration, 20 μL of 3% carrageenan was injected intraplantarly (i.pl.) in the right hind paws. 3 hours after carrageenan administration, additional measurements were taken to determine the mechanonociceptive thresholds and paw volumes of the ipsilateral and contralateral paws.
Baseline and post-carrageenan injection paw volume was determined by plethysmometry (Ugo Basile Plethysmometer 7140, Comerio, Italy) and expressed in cubic centimeter (cm^3). Paw edema was presented as percentage increase of baseline values obtained prior to carrageenan administration (Bolcskei K. et al., Pain. 2005; 117:368-76).

[2] = system: male NMRI mice, mechanonociceptive threshold of the hind paws; assay: Carrageenan-induced mechanical hyperalgesia, mechanonociceptive threshold by dynamic plantar aesthesiometry; assay type: in vivo, mouse; settings: for carrageenan-induced drop of the mechanonociceptive threshold: 3 hours after carrageenan
Method: as §5, §6
The mechanonociceptive threshold of the hind paws were measured by dynamic plantar aesthesiometry (DPA, Ugo Basile 37400, Comerio, Italy). Mice were placed into plexiglass boxes with a wire grid floor. After acclimation, the plantar surface was touched with a straight metal filament, lifting with increasing upward force (until the animal withdrew his paw or until the maximum force of 10 g was reached (maximum force of 10 g reached within 4 s). Mechanonociceptive thresholds are expressed in gram (g), while mechanical hyperalgesia is represented as a percentage decrease from the initial withdrawal thresholds (i.e., before drug and carrageenan administration) (Bolcskei K. et al., Pain. 2005; 117:368-76).

[3] = Table 4 Exp. 1: CBD 0.1 μM, BCP 0.013 μM, CBD + BCP 0.1 μM + 0.013 μM
[4] = Table 4 Exp. 2: CBD 1 μM, BCP 0.13 μM, CBD + BCP 1 μM + 0.13 μM
[5] = single doses i.p. (CBD 0.5, 1, 10, 30 mg/kg; BCP 1, 5, 10, 30 mg/kg), 30 min after administration

Which results are given for C=C(C)[C@@H]1CCC(C)=C[C@H]1c1c(O)cc(CCCCC)cc1O [CBD, cannabidiol]?
reduction of LPS-induced expression of IL-1α vs untreated, LPS-stimulated controls (FIG. 3A) (IL-1α gene expression; CBD 0.1 μM, BCP 0.013 μM (p<0.001), combination 0.1 μM + 0.013 μM (7.7:1, p<0.001)): did not significantly reduce; % decrease in IL1α expression (IL-1α gene expression; single agent 0.1 μM): 13%; % decrease in IL1α expression (IL-1α gene expression; single agent 1 μM): 4%; % decrease in IL1α expression (IL-1α gene expression; single agent 5 μM): 10%; % decrease in IL1α expression (IL-1α gene expression; single agent 10 μM): 21%; % Inhibition Alone, IL-1α gene expression (IL-1α gene expression; single agent 0.1 μM): 0%; % Inhibition Alone, IL-1α gene expression (IL-1α gene expression; single agent 0.3 μM): 3.2 ± 0.2%; % Inhibition Alone, IL-1α gene expression (IL-1α gene expression; single agent 1 μM): 34.5 ± 6.2%; % Inhibition Alone, IL-1α gene expression (IL-1α gene expression; single agent 3 μM): 55.5 ± 4.7% and 55.5 ± 47%; % decrease in IL-1α gene expression (IL-1α gene expression; [3]): 0%; % decrease in IL-1α gene expression (IL-1α gene expression; [4]): 42%; concentrations with marked anti-inflammatory effects (IL-1α gene expression; applied alone, IL-1α and IL-1β gene expression): ≥ 1 µM; % Inhibition CBD Alone (IL-1β gene expression) (IL-1β gene expression; 0.1 μM CBD alone): 5.8 ± 1.4%; % Inhibition CBD Alone (IL-1β gene expression) (IL-1β gene expression; 0.3 μM CBD alone): 9 ± 3.6%; % Inhibition CBD Alone (IL-1β gene expression) (IL-1β gene expression; 1 μM CBD alone): 39.2 ± 10.1%; % Inhibition CBD Alone (IL-1β gene expression) (IL-1β gene expression; 3 μM CBD alone): 85.6 ± 10%; % Inhibition CBD Alone (IL-1β gene expression) (IL-1β gene expression; 10 μM CBD alone): 92.2 ± 8.4%; reduction of LPS-induced expression of IL-1β vs untreated, LPS-stimulated controls (FIG. 3B) (IL-1β gene expression; CBD 0.1 μM, BCP 0.013 μM (p<0.01), combination 0.1 μM + 0.013 μM (7.7:1, p<0.001)): did not significantly reduce; % decrease in IL1β expression (IL-1β gene expression; Table 3A experiment, single agent 0.1 μM): 19%; % decrease in IL1β expression (IL-1β gene expression; Table 3A experiment, single agent 1 μM): 11%; % decrease in IL1β expression (IL-1β gene expression; Table 3A experiment, single agent 5 μM): 31%; % decrease in IL1β expression (IL-1β gene expression; Table 3A experiment, single agent 10 μM): 33%; % decrease in IL1β expression (IL-1β gene expression; Table 3B experiment, single agent 0.1 μM): 5.8 ± 1.4%; % decrease in IL1β expression (IL-1β gene expression; Table 3B experiment, single agent 0.3 μM): 9 ± 3.6%; % decrease in IL1β expression (IL-1β gene expression; Table 3B experiment, single agent 1.0 μM): 39.2 ± 10.1%; % decrease in IL1β expression (IL-1β gene expression; Table 3B experiment, single agent 3.0 μM): 85.6 ± 10%; % decrease in IL1β expression (IL-1β gene expression; Table 3B experiment, single agent 10 μM): 92.2 ± 8.4%; % decrease in IL-1β gene expression (IL-1β gene expression; [3]): 13%; % decrease in IL-1β gene expression (IL-1β gene expression; [4]): 55%; carrageenan-induced increase of the paw volume ([1]; 0.5 mg/kg CBD alone, 3 hours after carrageenan): not influenced; carrageenan-induced increase of the paw volume ([1]; 1 mg/kg CBD alone, 3 hours after carrageenan): not influenced; carrageenan-induced increase of the paw volume ([1]; most CBD and BCP single dose pre-treatments, three hours after i.pl. carrageenan): only mildly influenced; basal paw volume vs vehicle-treated mice [1, 5]: none of the investigated single doses of CBD or BCP influenced the basal paw volume; carrageenan-induced drop of the mechanonociceptive threshold ([2]; 0.5 mg/kg CBD alone): not influenced; carrageenan-induced drop of the mechanonociceptive threshold ([2]; 1 mg/kg CBD alone): not influenced; effect on mechanonociceptive threshold when applied alone ([2]; CBD 1 mg/kg, BCP 10 mg/kg): negligible effects; suppression of the mechanonociceptive threshold by carrageenan ([2]; most CBD and BCP single pre-treatments, three hours after carrageenan): only mildly influenced; basal mechanonociceptive threshold vs vehicle-treated mice [2, 5]: none of the investigated single doses of CBD and BCP influenced the basal mechanonociceptive threshold
